Experimental data from patent US20210369853A1, “TARGETED PROTEASE DEGRADATION PLATFORM” (EUBULUS BIOTHERAPEUTICS INC., priority 2018, published 2021).
Where two headings read alike, the source gives them in different places.

Legend:
Assay type in all cases: cell-based
BRD4 = target: T1, BRD4 (Homo sapiens, UniProt O60885); test: Western blot, protein degradation (DC50)
T1 construct: endogenous in cells
Method: (§1) Cells were treated with the compound for a period of time, after that the cells were collected by centrifugation. After washing with PBS, the cells were lysed by adding RIPA buffer; the cell lysate were added to the loading buffer and then appropriate volume were taken and slowly added to the corresponding wells of the gel plate, and run the SDS-PAGE gel (4%-12%). After running the gel, transferred to the PVDF membrane and sealed with 5% skimmed milk powder at room temperature for 1 hour. The membrane was placed in the primary antibody diluted with 5% skimmed milk powder and shaked slowly overnight at 4° C. After incubation with primary antibody, the membrane was washed 3 times using a TBST shaker; added secondary antibody diluted with 5% skimmed milk powder corresponding to the primary antibody, and shaked slowly at room temperature for 1 hour. After incubation with secondary antibody, the membrane was washed 3 times using the TBST shaker again. The PVDF membrane was flatted in the cassette, the strip was evenly infiltrated with ECL developer solution, and placed in ChemDoc XRS+ gel imager for taking pictures. The intensity of protein bands was analyzed quantitatively using ImageJ software.

PLK1 = target: T2, PLK1 (Homo sapiens, UniProt P53350); test: Western blot, protein degradation (DC50)
T2 construct: endogenous in cells
T2 sequence (P53350 whole entry): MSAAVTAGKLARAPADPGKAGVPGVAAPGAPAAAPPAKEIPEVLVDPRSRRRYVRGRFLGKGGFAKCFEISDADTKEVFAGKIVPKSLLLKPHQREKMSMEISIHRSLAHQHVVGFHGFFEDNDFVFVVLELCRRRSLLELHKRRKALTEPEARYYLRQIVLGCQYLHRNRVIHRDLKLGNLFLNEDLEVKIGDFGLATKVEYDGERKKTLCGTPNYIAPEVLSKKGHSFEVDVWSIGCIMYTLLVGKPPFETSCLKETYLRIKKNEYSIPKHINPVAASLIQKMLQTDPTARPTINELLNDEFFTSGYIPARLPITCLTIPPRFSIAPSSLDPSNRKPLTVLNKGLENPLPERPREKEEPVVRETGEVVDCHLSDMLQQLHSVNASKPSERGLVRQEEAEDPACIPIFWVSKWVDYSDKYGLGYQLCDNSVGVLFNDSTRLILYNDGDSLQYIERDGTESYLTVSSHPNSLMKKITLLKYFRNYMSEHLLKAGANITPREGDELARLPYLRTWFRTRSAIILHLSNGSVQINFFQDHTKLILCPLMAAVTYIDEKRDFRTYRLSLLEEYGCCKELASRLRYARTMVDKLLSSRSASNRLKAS
Method: as §1

[1] = tested on: Human Monocytic Leukemia MV4-11; test: Cell proliferation experiment (Alarm blue, 72 h, EC50)
Outline: (§2)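 Log-phase cells were seeded in 96-well plates, then exposed to test compound in a 5-fold dilution series, in duplicate, for 72 h. Fluorescence read by Alarm blue. EC50 fitted with a four-parameter (Min, Max, Slope) equation.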

[2] = tested on: Human Colon Cancer HCT-116; test: as above; settings: Homo sapiens, HCT-116; HCT116 cells
Outline: as §2

[3] = 24 h, western blot, read-out: BRD4 DC50 (24 h)
[4] = 24 h, western blot, read-out: PLK1 DC50 (24 h)
[5] = Homo sapiens, MV4-11, MV4;11 cells
[6] = 24 h, read-out: BRD4 DC50 (nM) (24 h)
[7] = 24 h, read-out: PLK1 DC50 (nM) (24 h)
[8] = 24 h, read-out: BRD4 DC50 (24 h)
[9] = 6 h, western blot, read-out: BRD4 DC50 (6 h)
[10] = 6 h, western blot, read-out: PLK1 DC50 (6 h)

CC[C@@H]1C(=O)N(C)c2cnc(Nc3ccc(C(=O)NCCOCCOCCOCCNCCCCC(=O)Nc4cccc5c4CN(C4CCC(=O)NC4=O)C5=O)cc3OC)nc2N1C1CCCC1 (stereo partly drawn) [UB-180666]
DC50 (BRD4; [3]): < 10 nM | DC50 (PLK1; [4]): 10 to 100 nM | EC50 [1, 5]: 10 to 100 nM

CC[C@@H]1C(=O)N(C)c2cnc(Nc3ccc(C(=O)NCc4cn(CCCN(CCC(=O)Nc5cccc6c5CN(C5CCC(=O)NC5=O)C6=O)C(=O)OCc5ccc(NC(=O)[C@H](CCCNC(N)=O)NC(=O)[C@@H](NC(=O)CCCCCN6C(=O)C=CC6=O)C(C)C)cc5)nn4)cc3OC)nc2N1C1CCCC1 (stereo partly drawn) [UB-180717]
DC50 (BRD4; [6]): 10 to 100 nM | DC50 (PLK1; [7]): 10 to 100 nM | EC50 [1, 5]: 100 to 1000 nM

CC[C@@H]1C(=O)N(C)c2cnc(Nc3ccc(C(=O)NCCCOCC(N)COCCC(=O)Nc4cccc5c4CN(C4CCC(=O)NC4=O)C5=O)cc3OC)nc2N1C1CCCC1 (stereo partly drawn) [UB-180624]
DC50 (BRD4; [8]): < 10 nM | EC50 [1, 5]: 10 to 100 nM

CC[C@@H]1C(=O)N(C)c2cnc(Nc3ccc(C(=O)NCCCNCCCCCCCC(=O)Nc4cccc5c4CN(C4CCC(=O)NC4=O)C5=O)cc3OC)nc2N1C1CCCC1 (stereo partly drawn) [UB-180632]
DC50 (BRD4; 6 h, read-out: BRD4 DC50 (6 h)): < 10 nM | DC50 (PLK1; 6 h, read-out: PLK1 DC50 (6 h)): < 10 nM | EC50 [1, 5]: 10 to 100 nM

CC[C@@H]1C(=O)N(C)c2cnc(Nc3ccc(C(=O)NCCNc4cccc5c4CN(C4CCC(=O)NC4=O)C5=O)cc3OC)nc2N1C1CCCC1 (stereo partly drawn) [UB-180567]
DC50 (BRD4; [9]): > 1000 nM | DC50 (PLK1; [10]): > 1000 nM | EC50 [1, 5]: 10 to 100 nM

CC[C@@H]1C(=O)N(C)c2cnc(Nc3ccc(C(=O)NCCCNCCCCC(=O)Nc4cccc5c4CN(C4CCC(=O)NC4=O)C5=O)cc3OC)nc2N1Cc1ccc(Cl)s1 (stereo partly drawn) [UB-180673]
DC50 (BRD4; [9]): 10 to 100 nM | DC50 (PLK1; [10]): 10 to 100 nM | EC50 [1, 5]: 10 to 100 nM

CC[C@@H]1C(=O)N(C)c2cnc(Nc3ccc(C(=O)NC4CCN(CCNCCOCC(=O)Nc5cccc6c5CN(C5CCC(=O)NC5=O)C6=O)C4)cc3OC)nc2N1C1CCCC1 (stereo partly drawn) [UB-180703]
DC50 (BRD4; [3]): < 10 nM | DC50 (PLK1; [4]): 10 to 100 nM | EC50 [1, 5]: 10 to 100 nM

CC[C@@H]1C(=O)N(C)c2cnc(Nc3ccc(C(=O)NCCCNCCCCCC(=O)Nc4cccc5c4CN(C4CCC(=O)NC4=O)C5=O)cc3OC)nc2N1C1CCCC1 (stereo partly drawn) [UB-180659]
DC50 (BRD4; [3]): < 10 nM | DC50 (PLK1; [4]): 100 to 1000 nM | EC50 ([1]; Homo sapiens, MV4;11 cells): 10 to 100 nM

CC[C@@H]1C(=O)N(C)c2cnc(Nc3ccc(C(=O)NCCCNCCCCCCCC(=O)Nc4cccc5c4CN(C4CCC(=O)NC4=O)C5=O)cc3OC)nc2N1Cc1ccc(Cl)s1 (stereo partly drawn) [UB-180674]
DC50 (BRD4; [9]): < 10 nM | DC50 (PLK1; [10]): < 10 nM | EC50 [1, 5]: < 10 nM

CC[C@@H]1C(=O)N(C)c2cnc(Nc3ccc(C(=O)NCCOCCOCCOCC(=O)N[C@H](C(=O)N4C[C@H](O)C[C@H]4C(=O)NCc4ccc(-c5scnc5C)cc4)C(C)(C)C)cc3OC)nc2N1Cc1ccc(Br)cc1 [UB-180601]
DC50 (BRD4; 6 h, read-out: BRD4 DC50 (6 h)): > 1000 nM | DC50 (PLK1; 6 h, read-out: PLK1 DC50 (6 h)): > 1000 nM

CC[C@@H]1C(=O)N(C)c2cnc(Nc3ccc(C(=O)NCCOCCOCCOCCNCCCC(=O)Nc4cccc5c4CN(C4CCC(=O)NC4=O)C5=O)cc3OC)nc2N1C1CCCC1 (stereo partly drawn) [UB-180636]
DC50 (BRD4; 6 h, read-out: BRD4 DC50 (6 h)): 10 to 100 nM | DC50 (PLK1; 6 h, read-out: PLK1 DC50 (6 h)): 10 to 100 nM | EC50 ([1]; Homo sapiens, MV4;11 cells): 10 to 100 nM

CC[C@@H]1C(=O)N(C)c2cnc(Nc3ccc(C(=O)NCCOCCOCCOCCC(=O)N[C@H](C(=O)N4C[C@H](O)C[C@H]4C(=O)NCc4ccc(-c5scnc5C)cc4)C(C)(C)C)cc3OC)nc2N1Cc1ccc(Br)cc1 [UB-180602]
DC50 (BRD4; 6 h, read-out: BRD4 DC50 (6 h)): > 1000 nM | DC50 (PLK1; 6 h, read-out: PLK1 DC50 (6 h)): > 1000 nM

CC[C@@H]1C(=O)N(C)c2cnc(Nc3ccc(C(=O)NCCOCCOCCOCCNCCCC(=O)Nc4cccc5c4CN(C4CCC(=O)NC4=O)C5=O)cc3OC)nc2N1C1CCCC1 (stereo partly drawn) [UB-180647]
DC50 (BRD4; [3]): < 10 nM | DC50 (PLK1; [4]): 10 to 100 nM | EC50 ([1]; MV4;11 cells): 10 to 100 nM | EC50 [2]: > 1000 nM

Cc1sc2c(c1C)C(c1ccc(Cl)cc1)=N[C@@H](CC(=O)NCCCNCCCCCC(=O)Nc1cccc3c1CN(C1CCC(=O)NC1=O)C3=O)c1nnc(C)n1-2 (stereo partly drawn) [UB-180642]
EC50 [1, 5]: 100 to 1000 nM | EC50 [2]: > 1000 nM

CC[C@@H]1C(=O)N(C)c2cnc(Nc3ccc(C(=O)NCCCNc4cccc5c4C(=O)N(C4CCC(=O)NC4=O)C5=O)cc3OC)nc2N1C1CCCC1 (stereo partly drawn) [UB-180579]
DC50 (BRD4; 6 h, read-out: BRD4 DC50 (6 h)): 100 to 1000 nM | DC50 (PLK1; 6 h, read-out: PLK1 DC50 (6 h)): 100 to 1000 nM | EC50 [1, 5]: 10 to 100 nM

CC[C@@H]1C(=O)N(C)c2cnc(Nc3ccc(C(=O)NC4CCN(CCOCCNCC(=O)Nc5cccc6c5CN(C5CCC(=O)NC5=O)C6=O)CC4)cc3OC)nc2N1Cc1cnc(C)s1 (stereo partly drawn) [UB-180745]
DC50 (BRD4; 6 h, read-out: BRD4 DC50 (nM) (6 h)): < 10 nM | DC50 (BRD4; [6]): < 10 nM | DC50 (PLK1; 6 h, read-out: PLK1 DC50 (nM) (6 h)): > 1000 nM | DC50 (PLK1; [7]): < 10 nM | EC50 [1, 5]: < 10 nM

O=C1CCC(N2Cc3c(NC(=O)COCCCNC(=O)c4ccc(Nc5ncc6c(n5)-c5ccc(Cl)cc5C(c5c(F)cccc5F)=NC6)cc4)cccc3C2=O)C(=O)N1 (stereo not drawn) [UB-180502]
EC50 [1, 5]: 10 to 100 nM | EC50 [2]: 100 to 1000 nM

Cc1sc2c(c1C)C(c1ccc(Cl)cc1)=N[C@@H](CC(=O)NCCCNCCCCCCCC(=O)Nc1cccc3c1CN(C1CCC(=O)NC1=O)C3=O)c1nnc(C)n1-2 (stereo partly drawn) [UB-180630]
EC50 [1, 5]: 100 to 1000 nM | EC50 [2]: > 1000 nM

O=C1CCC(N2Cc3c(NC(=O)COCCOCCOCCNC(=O)c4ccc(Nc5ncc6c(n5)-c5ccc(Cl)cc5C(c5c(F)cccc5F)=NC6)cc4)cccc3C2=O)C(=O)N1 (stereo not drawn) [UB-180520]
EC50 [1, 5]: 10 to 100 nM | EC50 [2]: > 1000 nM

O=C1CCC(N2Cc3c(NC(=O)CCOCCOCCOCCOCCNC(=O)[C@]4(Cc5cccc(Nc6nccs6)n5)CC[C@@H](Oc5cccc(Cl)c5F)CC4)cccc3C2=O)C(=O)N1 (stereo partly drawn) [UB-180575]
EC50 [1, 5]: 10 to 100 nM | EC50 [2]: > 1000 nM

O=C1CCC(N2Cc3c(NC(=O)CCOCCOCCOCCOCCNC(=O)c4ccc(Nc5ncc6c(n5)-c5ccc(Cl)cc5C(c5c(F)cccc5F)=NC6)cc4)cccc3C2=O)C(=O)N1 (stereo not drawn) [UB-180530]
EC50 [1, 5]: 10 to 100 nM | EC50 [2]: > 1000 nM

CC[C@@H]1c2c(C#N)ncn2-c2cnc(Nc3ccc(C(=O)NCc4cn(CCNCCOCC(=O)Nc5cccc6c5CN(C5CCC(=O)NC5=O)C6=O)nn4)cc3OC)nc2N1C1CCCC1 (stereo partly drawn) [UB-180718]
DC50 (BRD4; [6]): 100 to 1000 nM | DC50 (PLK1; [7]): 100 to 1000 nM | EC50 [1, 5]: 100 to 1000 nM

CC[C@@H]1c2c(C#N)ncn2-c2cnc(Nc3ccc(C(=O)NCCOCCOCCOCC(=O)Nc4cccc5c4C(=O)N(C4CCC(=O)NC4=O)C5=O)cc3OC)nc2N1Cc1ccc(Br)cc1 (stereo partly drawn) [UB-180594]
DC50 (BRD4; 6 h, read-out: BRD4 DC50 (6 h)): > 1000 nM | DC50 (PLK1; 6 h, read-out: PLK1 DC50 (6 h)): > 1000 nM

CC[C@@H]1C(=O)N(C)c2cnc(Nc3ccc(C(=O)NCCCNCCCCCCC(=O)Nc4cccc5c4CN(C4CCC(=O)NC4=O)C5=O)cc3OC)nc2N1C1CCCC1 (stereo partly drawn) [UB-180631]
DC50 (BRD4; [8]): < 10 nM | DC50 (PLK1; 24 h, read-out: PLK1 DC50 (24 h)): 10 to 100 nM | EC50 [1, 5]: 10 to 100 nM

O=C1CCC(N2Cc3c(NC(=O)CCNC(=O)[C@]4(Cc5cccc(Nc6nccs6)n5)CC[C@@H](Oc5cccc(Cl)c5F)CC4)cccc3C2=O)C(=O)N1 (stereo partly drawn) [UB-180616]
EC50 [1, 5]: > 1000 nM | EC50 [2]: > 1000 nM

O=C1CCC(N2Cc3c(NC(=O)COCCCNC(=O)[C@]4(Cc5cccc(Nc6nccs6)n5)CC[C@@H](Oc5cccc(Cl)c5F)CC4)cccc3C2=O)C(=O)N1 (stereo partly drawn) [UB-180588]
EC50 [1, 5]: > 1000 nM | EC50 [2]: > 1000 nM

O=C1CCC(N2Cc3c(NC(=O)CCNC(=O)c4ccc(Nc5ncc6c(n5)-c5ccc(Cl)cc5C(c5c(F)cccc5F)=NC6)cc4)cccc3C2=O)C(=O)N1 (stereo not drawn) [UB-180617]
EC50 [1, 5]: > 1000 nM | EC50 [2]: > 1000 nM

O=C1CCC(N2Cc3c(NC(=O)COCCOCCNC(=O)[C@]4(Cc5cccc(Nc6nccs6)n5)CC[C@@H](Oc5cccc(Cl)c5F)CC4)cccc3C2=O)C(=O)N1 (stereo partly drawn) [UB-180572]
EC50 [1, 5]: > 1000 nM | EC50 [2]: > 1000 nM

CC[C@@H]1C(=O)N(C)c2cnc(Nc3ccc(C(=O)NCCOCCOCCOCCNCC(=O)Nc4cccc5c4CN(C4CCC(=O)NC4=O)C5=O)cc3OC)nc2N1C1CCCC1 (stereo partly drawn) [UB-180663]
DC50 (BRD4; [9]): < 10 nM | DC50 (BRD4; [3]): < 10 nM | DC50 (PLK1; [10]): < 10 nM | DC50 (PLK1; [4]): < 10 nM | EC50 ([1]; Homo sapiens, MV4;11 cells): 10 to 100 nM
